Tests used:
[1] = system: vesicle-fusing ATPase; conditions: ATPase inhibitor; Steel et al. 1999, Morgan et al. 1994; cited from earlier work
[2] = biological target: cotton aphid vesicle-fusing ATPase (Aphis gossypii, UniProt A0A9P0IYS6); assay: Inhibition of cotton aphid vesicle-fusing ATPase activity (Kinase-Glo luminescent assay of ATP not hydrolyzed); format: biochemical; conditions: for IC50: 8 concentrations from 100 μM to 0.03 μM, calculated with XLfit, read-out: Activity of inhibiting vesicle-fusing ATPase activity (IC50)
cotton aphid vesicle-fusing ATPase, sequence (A0A9P0IYS6 1-478): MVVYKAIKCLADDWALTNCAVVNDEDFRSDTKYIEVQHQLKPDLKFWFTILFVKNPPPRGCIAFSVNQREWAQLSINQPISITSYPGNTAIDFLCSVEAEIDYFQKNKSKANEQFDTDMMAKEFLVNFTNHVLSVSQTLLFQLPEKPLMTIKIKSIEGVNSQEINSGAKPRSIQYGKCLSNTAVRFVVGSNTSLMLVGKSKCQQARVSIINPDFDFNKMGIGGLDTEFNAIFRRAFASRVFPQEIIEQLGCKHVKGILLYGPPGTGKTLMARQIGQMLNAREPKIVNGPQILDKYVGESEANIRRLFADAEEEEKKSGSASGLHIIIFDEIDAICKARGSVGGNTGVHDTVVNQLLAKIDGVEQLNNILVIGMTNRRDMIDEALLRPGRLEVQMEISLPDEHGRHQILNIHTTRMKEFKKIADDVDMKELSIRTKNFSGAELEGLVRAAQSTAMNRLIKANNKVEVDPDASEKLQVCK
Protocol: Selection of a compound which modulates a vesicle-fusing ATPase activity was performed in a system for measuring and evaluating the vesicle-fusing ATPase activity, the activity being modulated by adding a test compound to an in vitro reaction system using the cotton aphid vesicle-fusing ATPase prepared in Example 7.
As for a measurement of the cotton aphid vesicle-fusing ATPase activity, after the enzymatic reaction of vesicle-fusing ATPase using ATP as a substrate, an amount of ATP that was not hydrolyzed was measured as the amount of luminescence of luciferase using Kinase-Glo™ Luminescent Kinase Assay (manufactured by Promega), according to a method described in the instruction attached to the kit. The vesicle-fusing ATPase activity was calculated from the amount of luminescence.
For measuring the activity, the activity of the aphid vesicle-fusing ATPase was measured when a test compound dissolved in DMSO was contained to a final concentration of 10 μM. In addition, the activity of the aphid vesicle-fusing ATPase was measured when DMSO was contained in place of a test compound. Then, a ratio (%) of a measured value of the activity of the aphid vesicle-fusing ATPase when a test compound dissolved in DMSO was contained, relative to a measured value of the activity of aphid vesicle-fusing ATPase when DMSO was contained in place of the test compound was calculated, and a value obtained by subtracting the calculated value from 100% was adopted as an inhibition degree (%). The results in each test compound are shown in Table 4 in Example 9 together with results of Example 9.
The activity of aphid vesicle-fusing ATPase was measured when a test compound dissolved in DMSO was contained to a final concentration of each concentration of 100 μM, 30 μM, 10 μM, 3 μM, 1 μM, 0.3 μM, 0.1 μM or 0.03 μM. IC50 (μM) was calculated from the result of each concentration at each test compound using a concentration-dependent test analyzing software XL fit (manufactured by idbs). The results are shown in Table 5 in Example 10 together with results of Example 9.

[3] = system: Aphis gossypii; assay: Pesticidal activity test, cotton aphid reared on artificial feed containing test compound; format: in vivo; conditions: same manner as Example 9: 50 ppm in artificial feed, 6 days, controlling value of 30% or more = pesticidal activity
[4] = test compound in DMSO at final concentration 10 μM, relative to DMSO control

Compound | Activity against vesicle-fusing ATPase [1] | IC50 [2] | inhibition at 10 µM ([2]; test compound in DMSO at final concentration 10 μM, relative to DMSO control, read-out: Activity of inhibiting vesicle-fusing ATPase activity (inhibition degree (%) at 10 μm addition)) | Activity of inhibiting vesicle-fusing ATPase activity (inhibition degree (%) at 10 μm addition) [2, 4] | Determination result of pesticidal activity (Result of Example 10) [3]
CCN1C(=O)C=CC1=O [N-ethylmaleimide] | show also activity against vesicle-fusing ATPase | – | – | – | –
Cc1ccc(C(=O)Nc2ccc(S(=O)(=O)O)c3cc(S(=O)(=O)O)cc(S(=O)(=O)O)c23)cc1NC(=O)c1cccc(NC(=O)Nc2cccc(C(=O)Nc3cc(C(=O)Nc4ccc(S(=O)(=O)O)c5cc(S(=O)(=O)O)cc(S(=O)(=O)O)c45)ccc3C)c2)c1 [Suramin] | – | 1.9 µM | 100% | – | –
CCCCCCCCCCCCC(=O)N1CCCCC1CNC(=O)[C@@H](N)CCCCN.Cl.Cl (some centres unmarked) [NPC15437 dihydrochloride] | – | 19 µM | – | 35% | –
Cc1ccc2c(c1)C(=O)C1(O)CCN(c3ccccc3)C1=N2 (racemic) [(±)-Blebbistatin] | – | > 100 µM | – | – | Absence of
Hypocrellin B | – | > 100 µM | – | – | Absence of
Clc1ccc(C(c2ccc(Cl)cc2)n2cc[n+](CC(OCc3ccc(Cl)cc3Cl)c3ccc(Cl)cc3Cl)c2)cc1 (centres unmarked) [Calmidazolium Chloride] | – | 4.7 µM | – | 80% | –
